Reference: patent US20250230155A1 (Vanderbilt University, priority 2021, published 2025)

Molecular target: T1, human mAChR M4 (Homo sapiens, UniProt P08173)
T1 construct: expressed in transfected cells
T1 sequence (P08173 1-479): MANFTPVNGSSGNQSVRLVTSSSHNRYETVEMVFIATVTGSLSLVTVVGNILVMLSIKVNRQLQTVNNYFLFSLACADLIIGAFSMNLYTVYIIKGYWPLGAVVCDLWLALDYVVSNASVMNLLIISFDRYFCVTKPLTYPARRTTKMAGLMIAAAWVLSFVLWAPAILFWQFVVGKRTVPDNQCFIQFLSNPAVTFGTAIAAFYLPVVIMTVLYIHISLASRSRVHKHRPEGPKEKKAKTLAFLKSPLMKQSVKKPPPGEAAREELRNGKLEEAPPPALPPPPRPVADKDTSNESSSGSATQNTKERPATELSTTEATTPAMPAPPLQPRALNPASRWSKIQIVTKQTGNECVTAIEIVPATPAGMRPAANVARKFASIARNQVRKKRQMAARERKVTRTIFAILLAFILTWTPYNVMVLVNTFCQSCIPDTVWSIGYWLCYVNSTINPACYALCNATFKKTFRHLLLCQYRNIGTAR
Assay: mAChR M4 cell-based functional assay (calcium mobilization, CHO-K1 hM4-Gqi5 cells)
Settings: for Emax at 30 µM: CHO-K1, % ACh maximum at 30 μM, human M4; for EC50: positive allosteric modulator activity, increase in the EC20 acetylcholine response, CHO-K1 hM4-Gqi5 cells, read-out: Human M4 EC50
Outline: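 Fluorescent calcium read-out (Fluo-4 AM, FDSS, 1 Hz) in hM4-Gqi5 CHO-K1 cells, 11-point 1:3 compound series. Agonism scored on compound addition, PAM activity as increase of the 144 s EC20 acetylcholine response, antagonism as decrease of the 230 s EC80 response; four-parameter logistic fits give EC50 and Emax.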

SMILES	Emax at 30 µM	EC50
Cc1cc(C#N)cnc1N1CCc2ncc(Nc3ncccc3F)cc2C1 [compound 167, 6-[3-[(3-fluoro-2-pyridyl)amino]-7,8-dihydro-5H-1,6-naphthyridin-6-yl]-5-methyl-pyridine-3-carbonitrile]	91%	265 nM
Cc1cc(C(=O)N(C)Cc2ccncc2)cnc1N1CCc2ncc(-c3cn(C)nc3C)cc2C1 [Example 454, 6-(3-(1,3-dimethyl-1/-pyrazol-4-yl)-7,8-dihydro-1,6-naphthyridin-6(5H)-yl)-N,5-dimethyl-N-(pyridin-4-ylmethyl)nicotinamide]	60%	3900 nM
Cc1cc(C(=O)N2CC(C(F)F)C2)nnc1N1CCc2ncc(-c3ccnn3C)cc2C1 [Example 562, (3-(difluoromethyl)azetidin-1-yl)(5-methyl-6-(3-(1-methyl-1H-pyrazol-5-yl)-7,8-dihydro-1,6-naphthyridin-6(5H)-yl)pyridazin-3-yl)methanone]	74%	91 nM
Cc1c(C#N)nnc(N2CCc3ncc(Oc4cc(F)ccc4F)cc3C2)c1C [Example 353, 6-(3-(2,5-difluorophenoxy)-7,8-dihydro-1,6-naphthyridin-6(5H)-yl)-4,5-dimethylpyridazine-3-carbonitrile]	73%	126 nM
Cc1cc(C#N)cnc1N1CCc2ncc(Nc3cccc(C(F)(F)F)c3F)cc2C1 [compound 113, 6-[3-[2-fluoro-3-(trifluoromethyl)anilino]-7,8-dihydro-5H-1,6-naphthyridin-6-yl]-5-methyl-pyridine-3-carbonitrile]	98%	1450 nM
Cc1cnc2c(c1)CN(c1ncc(C(=O)Nc3ccncc3)cc1C)CC2 [Example 438, 5-methyl-6-(3-methyl-7,8-dihydro-1,6-naphthyridin-6(5H)-yl)-N-(pyridin-4-yl)nicotinamide]	88%	517 nM
Cc1c(C(=O)NCc2ccncc2)nnc(N2CCc3ncc(C(F)(F)F)cc3C2)c1C [Example 467, 4,5-dimethyl-N-(pyridin-4-ylmethyl)-6-(3-(trifluoromethyl)-7,8-dihydro-1,6-naphthyridin-6(5H)-yl)pyridazine-3-carboxamide]	98%	129 nM
Cc1nc2c(c(N3CCc4ncc(C(F)(F)F)cc4C3)n1)CCC2 [compound 267, 6-(2-methyl-6,7-dihydro-5H-cyclopenta[d]pyrimidin-4-yl)-3-(trifluoromethyl)-5,6,7,8-tetrahydro-1,6-naphthyridine]	–	1030 nM
Cc1cc(C(=O)N2CCC2)nnc1N1CCc2ncc(N3CCCn4nccc43)cc2C1 [Example 545, azetidin-1-yl(6-(3-(6,7-dihydropyrazolo[1,5-a]pyrimidin-4(5H)-yl)-7,8-dihydro-1,6-naphthyridin-6(5H)-yl)-5-methylpyridazin-3-yl)methanone]	125%	46 nM
Cc1cc(C(=O)N2CC(c3cccnc3)C2)nnc1N1CCc2ncc(N3CCCn4nccc43)cc2C1 [Example 526, (6-(3-(6,7-dihydropyrazolo[1,5-a]pyrimidin-4(5H)-yl)-7,8-dihydro-1,6-naphthyridin-6(5H)-yl)-5-methylpyridazin-3-yl)(3-(pyridin-3-yl)azetidin-1-yl)methanone]	116%	17 nM
[2H]C1([2H])Cc2ncc(Nc3cc(C)ncc3F)cc2C([2H])([2H])N1c1nnc(C#N)c(C)c1C [Example 600, 6-(3-((5-fluoro-2-methylpyridin-4-yl)amino)-7,8-dihydro-1,6-naphthyridin-6(5H)-yl-5,5,7,7-d4)-4,5-dimethylpyridazine-3-carbonitrile]	92%	26 nM
Cc1cc(C(=O)N2CCCn3nccc32)nnc1N1CCc2ncc(C(F)(F)F)cc2C1 [Example 503, (6,7-dihydropyrazolo[1,5-a]pyrimidin-4(5H)-yl)(5-methyl-6-(3-(trifluoromethyl)-7,8-dihydro-1,6-naphthyridin-6(5H)-yl)pyridazin-3-yl)methanone]	103%	4080 nM
